Values quoted from earlier work, collected in US12133844B2, “Methods of treating epithelioid cell tumors” (Abraxis BioScience, LLC, priority 2015, dated 2024).
Read-outs that look alike come from different tables or passages of the source. Blank lines part the entries; values can stand above or below the molecule they belong to.

Legend:
[1] = biological target: T1, mTORC1 (Homo sapiens, UniProt P42345); set-up: endogenous in cells; host or cells: HUVEC
[2] = in vivo
[3] = tested on: ABCB1/ABCG2
[4] = biological target: T1, mTORC1; set-up: endogenous in cells; host or cells: HUVEC; conditions: HUVEC cells, 10 nM-1 μM
[5] = biological target: T1, mTORC1; set-up: endogenous in cells; conditions: HEK293 cells, 0.2 μM-5 μM
[6] = biological target: HSA (Homo sapiens, UniProt P02768)
Sequence of HSA (P02768 25-609): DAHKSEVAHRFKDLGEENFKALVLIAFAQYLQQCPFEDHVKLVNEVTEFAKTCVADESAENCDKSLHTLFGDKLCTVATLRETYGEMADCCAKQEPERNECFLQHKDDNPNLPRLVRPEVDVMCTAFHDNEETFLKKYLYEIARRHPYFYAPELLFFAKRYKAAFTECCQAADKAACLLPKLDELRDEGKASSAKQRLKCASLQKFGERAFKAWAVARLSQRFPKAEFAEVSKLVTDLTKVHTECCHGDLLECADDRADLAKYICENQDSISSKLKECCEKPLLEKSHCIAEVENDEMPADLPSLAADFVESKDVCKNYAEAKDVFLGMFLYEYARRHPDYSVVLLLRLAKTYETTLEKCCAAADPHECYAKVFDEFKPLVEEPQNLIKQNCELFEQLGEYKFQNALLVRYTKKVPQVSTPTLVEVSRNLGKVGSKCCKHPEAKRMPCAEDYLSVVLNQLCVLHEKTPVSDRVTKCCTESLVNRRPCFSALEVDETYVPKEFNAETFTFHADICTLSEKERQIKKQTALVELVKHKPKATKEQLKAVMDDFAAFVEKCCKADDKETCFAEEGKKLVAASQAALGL

[7] = tested on: human plasma proteins

inhibition of phosphorylation of mTORC1 at Ser2448 [1]: dose-dependent and time-dependent
Molecule: COc1ccc(-c2ccc3c(N4CCOCC4)nc(N4C[C@@H](C)O[C@@H](C)C4)nc3n2)cc1CO [KU-0063794]

Molecule: COc1ccc(COc2cc3oc(=O)c4cc(C(C)O)ccc4c3cc2OC)cc1 (stereo not shown) [Palomid 529]
brain penetration [2]: good brain penetration
affinity for ABCB1/ABCG2 [3]: lacks affinity

inhibition of mTORC1 [4]: inhibits mTORC1
inhibition of mTORC1 [5]: inhibits mTORC1
Molecule: WYE-354

binding to HSA [6]: shown to bind HSA
Molecule: CO[C@H]1C[C@@H]2CC[C@@H](C)[C@@](O)(O2)C(=O)C(=O)N2CCCC[C@H]2C(=O)O[C@H]([C@H](C)C[C@@H]2CC[C@@H](O)[C@H](OC)C2)CC(=O)[C@H](C)/C=C(\C)[C@@H](O)[C@@H](OC)C(=O)[C@H](C)C[C@H](C)/C=C/C=C/C=C/1C [Sirolimus, sirolimus]

binding to human plasma proteins [7]: shown to bind
Molecule: CC(=O)O[C@@]12CO[C@@H]1C[C@H](O)[C@@]1(C)C(=O)[C@H](O)C3=C(C)[C@@H](OC(=O)[C@H](O)[C@@H](NC(=O)OC(C)(C)C)c4ccccc4)C[C@@](O)([C@@H](OC(=O)c4ccccc4)[C@H]21)C3(C)C [docetaxel]
